The source of these data is ChEMBL document CHEMBL6114950, “Diamino variants of piperazine-based tissue transglutaminase inhibitors” (Bioorg Med Chem Lett, 2025).

pKi: −log10 of the molar value. Calls of active or inactive are those of the source. The rule behind the calls is not given here.

Series [1] is described as follows: Apparent permeability across apical to basolateral side in […] cells. In kind it is ADME, cell-based, Canis lupus familiaris. To be noted: dog, MDCK-MDR1.
Series [2] is described as follows: Apparent permeability across basolateral to apical side in […] cells. The class given is ADME, cell-based, Canis lupus familiaris. The conditions noted are these: dog, MDCK-MDR1.
For series [3], the target named is T1, Protein-glutamine gamma-glutamyltransferase (Homo sapiens) (UniProt P21980).
T1 sequence (whole entry): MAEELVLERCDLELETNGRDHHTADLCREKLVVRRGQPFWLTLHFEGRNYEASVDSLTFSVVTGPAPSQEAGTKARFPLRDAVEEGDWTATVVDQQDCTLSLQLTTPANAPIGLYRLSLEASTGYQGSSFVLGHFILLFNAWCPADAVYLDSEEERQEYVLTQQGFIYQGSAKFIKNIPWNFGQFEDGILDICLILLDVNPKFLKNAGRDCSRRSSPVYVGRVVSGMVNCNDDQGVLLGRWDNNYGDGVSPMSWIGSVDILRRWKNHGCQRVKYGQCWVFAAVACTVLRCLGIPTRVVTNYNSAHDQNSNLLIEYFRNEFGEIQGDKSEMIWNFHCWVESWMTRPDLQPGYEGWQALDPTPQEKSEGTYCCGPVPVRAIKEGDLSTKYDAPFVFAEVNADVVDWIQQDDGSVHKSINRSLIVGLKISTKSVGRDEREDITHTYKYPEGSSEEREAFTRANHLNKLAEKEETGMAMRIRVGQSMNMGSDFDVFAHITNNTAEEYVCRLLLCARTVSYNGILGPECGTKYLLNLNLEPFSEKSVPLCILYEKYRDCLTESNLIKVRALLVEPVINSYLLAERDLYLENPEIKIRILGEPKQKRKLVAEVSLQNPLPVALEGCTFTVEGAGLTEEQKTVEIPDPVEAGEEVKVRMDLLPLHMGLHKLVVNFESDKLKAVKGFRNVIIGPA
Put plainly: Irreversible inhibition of recombinant human TG2 assessed as inactivation constant using Cbz-Glu(gamma-p-nitrophenyl ester)Gly as a substrate at upto 100 uM by continuous colorimetric assay.

In series [4] the target is T1, Protein-glutamine gamma-glutamyltransferase (Homo sapiens). The series is described as follows: Irreversible inhibition of recombinant human TG2 assessed as Kinact/Ki using Cbz-Glu(gamma-p-nitrophenyl ester)Gly as a substrate at upto 100 uM by continuous colorimetric assay.
Series [5] shares this target. Put plainly: Irreversible inhibition of recombinant human TG2 assessed as inhibition constant using Cbz-Glu(gamma-p-nitrophenyl ester)Gly as a substrate at upto 100 uM by continuous colorimetric assay.
For series [6] the target is unchanged.
Description: Irreversible inhibition of recombinant human TG2 assessed as inactivation constant using Cbz-Glu(gamma-p-nitrophenyl ester)Gly as a substrate by continuous colorimetric assay
Series [7] has as its target T2, Protein-glutamine gamma-glutamyltransferase (Homo sapiens, UniProt P21980).
T2 sequence (P21980 whole entry): T1 sequence (whole entry)
Put plainly: Irreversible inhibition of recombinant human TG2 assessed as inhibition constant using Cbz-Glu(gamma-p-nitrophenyl ester)Gly as a substrate by continuous colorimetric assay.

Series [8] in a line: Efflux ratio of apparent permeability in MDCK-MDR1 cells. The conditions noted are these: dog. In kind it is ADME, cell-based, Canis lupus familiaris.

Consider `C=CC(=O)N(C)CC(=O)N1CCN(C(=O)C23CC4CC(CC(C4)C2)C3)CC1`, for which the apical-to-basolateral permeability (Papp A→B) in series [1] came to 19.7 ×10⁻⁶ cm/s. Moreover, in series [2], the basolateral-to-apical permeability (Papp B→A) amounted to 39 ×10⁻⁶ cm/s.

On to `C=CC(=O)NCC(=O)N1CC2(CCN(C(=O)C34CC5CC(CC(C5)C3)C4)CC2)C1`, for which, in series [3], the “inactivation constant (kinact)” value was “inactive”. Besides, the kinact/Ki entry in series [4] was “inactive”. The “inhibition constant (Ki)” value in series [5] is “inactive”.

For the compound `C=CC(=O)NCC(=O)N1CCC[C@@H](NC(=O)C23CC4CC(CC(C4)C2)C3)C1`, the Kinact in series [6] was determined as 0.67 min⁻¹. Also, the pKi in series [7] was 3.94.

Consider `C=CC(=O)NCC(=O)NC1CCC(NC(=O)C23CC4CC(CC(C4)C2)C3)CC1` (configuration not stated), for which, in series [3], the “inactivation constant (kinact)” value was “inactive”. Further, the kinact/Ki entry in series [4] was “inactive”. Also, in series [5], the “inhibition constant (Ki)” value was “inactive”.

On to `C=CC(=O)NCC(=O)NCCCCCNC(=O)C12CC3CC(CC(C3)C1)C2`, for which the “inactivation constant (kinact)” value in series [3] was “inactive”. Also, the kinact/Ki entry in series [4] was “inactive”. Also, the “inhibition constant (Ki)” value in series [5] is “inactive”.

`C=CC(=O)NCC(=O)NCCNC(=O)C12CC3CC(CC(C3)C1)C2`: the “inactivation constant (kinact)” value in series [3] was “inactive”. The kinact/Ki entry in series [4] was “inactive”. Further, in series [5], the “inhibition constant (Ki)” value is “inactive”.

Turning to `C=CC(=O)NCC(=O)NCCCNC(=O)C12CC3CC(CC(C3)C1)C2`, in series [3], the “inactivation constant (kinact)” value was “inactive”. Further, the kinact/Ki result in series [4] was “inactive”. The “inhibition constant (Ki)” value in series [5] was “inactive”.

Regarding `C=CC(=O)NCC(=O)N1CCC2(CC1)CCN(C(=O)C13CC4CC(CC(C4)C1)C3)CC2`, the “inactivation constant (kinact)” value in series [3] was “inactive”. In series [4], the kinact/Ki entry is “inactive”. Further, the “inhibition constant (Ki)” value in series [5] is “inactive”.

`C=CC(=O)NCC(=O)N1CCC2(CC1)CCN(C(=O)C13CC4CC(CC(C4)C1)C3)C2`: the Kinact in series [6] turned out to be 0.72 min⁻¹. In series [7], the pKi was 3.95.

In the case of `C=CC(=O)NCC(=O)N1CCN(C(=O)C23CC4CC(CC(C4)C2)C3)CC1`, the efflux ratio in series [8] worked out at 1.27. Moreover, the Kinact in series [6] is 1.5 min⁻¹. Further, the negative logarithm of the Ki (pKi) in series [7] was 5.55. The Papp A→B in series [1] was determined as 27.2 ×10⁻⁶ cm/s. The Papp B→A in series [2] was determined as 34.3 ×10⁻⁶ cm/s.

As for `C=CC(=O)NCC(=O)NC1CN(C(=O)C23CC4CC(CC(C4)C2)C3)C1`, the “inactivation constant (kinact)” value in series [3] is “inactive”. The kinact/Ki result in series [4] was “inactive”. Also, the “inhibition constant (Ki)” value in series [5] is “inactive”.

One may read the Papp A→B as the apparent permeability from the apical to the basolateral side of a cell layer. As usually defined, the Papp B→A is how fast a substance crosses the layer from the basolateral side. One may read the pKi as −log10 of the Ki, conventionally taken in molar units. As usually defined, the efflux ratio is the permeability from basolateral to apical divided by that in the opposite direction, in the common usage.
